The values below come from patent US9586951B2 (FUJIFILM Corporation, priority 2013, dated 2017).

For one assay, the target named is T1, ATM (Homo sapiens, UniProt Q13315).
T1 construct: detecting phosphorylation of Chk2 in a human non-small cell lung cancer cell line NCI-H460 (ATCC company); host or cells: NCI-H460 human non-small cell lung cancer cells
T1 sequence (Q13315 whole entry): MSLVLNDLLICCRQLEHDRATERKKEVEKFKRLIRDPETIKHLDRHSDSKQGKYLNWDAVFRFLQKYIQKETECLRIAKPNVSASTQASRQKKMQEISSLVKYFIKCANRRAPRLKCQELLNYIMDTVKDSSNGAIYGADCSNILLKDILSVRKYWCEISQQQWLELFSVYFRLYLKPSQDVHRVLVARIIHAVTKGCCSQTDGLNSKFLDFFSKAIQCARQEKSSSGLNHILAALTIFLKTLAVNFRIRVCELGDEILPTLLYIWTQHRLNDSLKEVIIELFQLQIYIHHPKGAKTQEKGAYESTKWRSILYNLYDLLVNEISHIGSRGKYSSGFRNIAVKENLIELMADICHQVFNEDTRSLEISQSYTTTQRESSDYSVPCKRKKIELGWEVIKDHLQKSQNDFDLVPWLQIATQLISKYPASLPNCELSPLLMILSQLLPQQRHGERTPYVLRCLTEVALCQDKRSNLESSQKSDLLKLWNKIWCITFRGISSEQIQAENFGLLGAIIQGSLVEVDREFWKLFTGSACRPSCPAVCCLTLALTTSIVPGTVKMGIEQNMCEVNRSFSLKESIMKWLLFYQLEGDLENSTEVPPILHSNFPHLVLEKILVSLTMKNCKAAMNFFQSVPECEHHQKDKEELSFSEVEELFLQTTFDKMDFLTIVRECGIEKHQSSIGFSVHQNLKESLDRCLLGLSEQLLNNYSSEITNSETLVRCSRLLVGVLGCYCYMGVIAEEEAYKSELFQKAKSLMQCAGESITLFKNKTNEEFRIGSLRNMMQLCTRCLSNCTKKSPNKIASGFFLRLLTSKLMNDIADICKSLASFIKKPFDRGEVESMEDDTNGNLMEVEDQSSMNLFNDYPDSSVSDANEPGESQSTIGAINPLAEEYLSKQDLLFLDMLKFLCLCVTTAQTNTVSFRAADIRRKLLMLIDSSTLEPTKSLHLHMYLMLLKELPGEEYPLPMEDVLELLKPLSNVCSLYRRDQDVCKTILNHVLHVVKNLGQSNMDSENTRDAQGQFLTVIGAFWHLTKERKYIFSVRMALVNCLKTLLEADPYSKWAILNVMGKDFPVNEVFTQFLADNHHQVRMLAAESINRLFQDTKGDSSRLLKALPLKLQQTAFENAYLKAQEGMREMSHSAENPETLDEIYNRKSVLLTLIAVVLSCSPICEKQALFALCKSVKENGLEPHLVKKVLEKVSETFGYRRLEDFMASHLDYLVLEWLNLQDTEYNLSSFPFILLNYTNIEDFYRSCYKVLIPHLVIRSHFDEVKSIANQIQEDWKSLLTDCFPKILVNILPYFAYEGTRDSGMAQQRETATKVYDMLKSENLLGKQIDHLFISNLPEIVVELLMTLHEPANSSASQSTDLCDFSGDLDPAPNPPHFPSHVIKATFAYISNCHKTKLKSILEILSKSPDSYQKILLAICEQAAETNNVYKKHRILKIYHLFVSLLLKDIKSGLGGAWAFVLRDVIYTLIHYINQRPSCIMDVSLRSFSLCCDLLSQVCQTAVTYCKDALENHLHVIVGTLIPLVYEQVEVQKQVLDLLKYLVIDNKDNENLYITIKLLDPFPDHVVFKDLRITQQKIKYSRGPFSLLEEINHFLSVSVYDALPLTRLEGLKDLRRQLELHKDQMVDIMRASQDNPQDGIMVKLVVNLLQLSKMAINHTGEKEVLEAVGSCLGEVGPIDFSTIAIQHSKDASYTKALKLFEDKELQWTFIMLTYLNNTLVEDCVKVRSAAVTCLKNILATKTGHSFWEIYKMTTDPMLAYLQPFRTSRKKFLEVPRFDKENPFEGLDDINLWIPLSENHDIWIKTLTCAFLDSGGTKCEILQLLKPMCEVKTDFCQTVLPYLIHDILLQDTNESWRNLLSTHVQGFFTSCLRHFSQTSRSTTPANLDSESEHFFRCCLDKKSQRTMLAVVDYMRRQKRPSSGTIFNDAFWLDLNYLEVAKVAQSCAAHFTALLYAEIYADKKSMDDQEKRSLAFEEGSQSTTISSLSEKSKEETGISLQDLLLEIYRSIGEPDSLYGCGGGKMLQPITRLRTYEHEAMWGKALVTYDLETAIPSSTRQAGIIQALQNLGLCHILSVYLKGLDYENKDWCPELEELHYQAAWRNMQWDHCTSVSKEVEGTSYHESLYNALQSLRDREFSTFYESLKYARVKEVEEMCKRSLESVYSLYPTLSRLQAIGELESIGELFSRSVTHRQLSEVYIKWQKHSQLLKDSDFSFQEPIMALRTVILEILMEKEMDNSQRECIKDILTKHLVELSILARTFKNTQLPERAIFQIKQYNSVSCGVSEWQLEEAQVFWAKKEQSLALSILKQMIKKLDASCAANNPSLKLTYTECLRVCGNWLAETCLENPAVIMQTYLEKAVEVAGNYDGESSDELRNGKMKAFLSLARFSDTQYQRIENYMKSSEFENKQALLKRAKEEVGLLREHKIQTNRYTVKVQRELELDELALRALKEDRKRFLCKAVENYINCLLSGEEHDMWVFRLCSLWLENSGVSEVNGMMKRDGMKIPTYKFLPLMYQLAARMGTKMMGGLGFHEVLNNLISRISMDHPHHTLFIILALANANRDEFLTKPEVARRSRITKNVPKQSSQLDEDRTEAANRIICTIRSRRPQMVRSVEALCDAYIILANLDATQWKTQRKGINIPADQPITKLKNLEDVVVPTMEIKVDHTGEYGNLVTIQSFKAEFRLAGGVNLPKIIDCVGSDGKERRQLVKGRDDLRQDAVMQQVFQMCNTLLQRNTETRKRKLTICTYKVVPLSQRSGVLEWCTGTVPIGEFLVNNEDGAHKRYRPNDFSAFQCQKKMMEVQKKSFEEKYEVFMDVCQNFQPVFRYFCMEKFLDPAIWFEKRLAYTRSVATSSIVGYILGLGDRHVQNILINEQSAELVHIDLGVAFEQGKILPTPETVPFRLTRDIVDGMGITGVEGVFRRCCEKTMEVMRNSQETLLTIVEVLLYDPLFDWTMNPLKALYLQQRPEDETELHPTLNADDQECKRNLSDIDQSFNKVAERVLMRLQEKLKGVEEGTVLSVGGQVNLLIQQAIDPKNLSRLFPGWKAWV
Kind of assay: ATM inhibition test (phosphorylation of Chk2 generated by ionizing radiation, AlphaScreen SureFire). To be noted: ATM inhibitory activity, phosphorylated Chk2 in NCI-H460 cells, ionizing radiation 8Gy, 1 hour after test compound treatment. The format is cell-based. On the procedure: ATM inhibitory effects of a test compound were measured by detecting phosphorylation of Chk2 in a human non-small cell lung cancer cell line NCI-H460 (ATCC company). The level of phosphorylated Chk2 generated by an ionizing radiation was measured using AlphaScreen SureFire (TGR Biosciences).
The cells were seeded by 40000 cells per well in 96-well CellBIND® plates (Corning International Inc.), and incubated at 37° C. overnight in 5% CO2. […] 1 hour after a test compound treatment, half of the plates were irradiated with ionizing radiation 8Gy (Faxitron Bioptics, LLC, RX-650 type). The plates irradiated with ionizing radiation and the plates not being irradiated with ionizing radiation were incubated at 37° C. for 1 hour in 5% CO2. […] Subsequent operations were performed according to the instruction book of AlphaScreen SureFire. […] The inhibition ratio was calculated by the following equation. Inhibition ratio (%)=((signal of drug untreated wells in the plates irradiated with ionizing radiation−signal of drug treated wells in the plates irradiated with ionizing radiation)/(signal of drug untreated wells in the plates irradiated with ionizing radiation−signal of drug untreated wells in the plates not being irradiated with ionizing radiation))×100
For orientation: Alpha assays give light when donor and acceptor beads are brought close together.
For `O=c1cc(N2CCOCC2)cc(-c2cccc3c2Sc2ccc(N4CC4CF)cc2S3)[nH]1` (stereo not drawn) [Example 1-40, 6-(7-(2-(fluoromethyl)aziridin-1-yl)thianthren-1-yl)-4-morpholinopyridin-2(1H)-one], the IC50 was 100 to 500 nM.

Still in this assay, the particulars now being: phosphorylated Chk2 in NCI-H460 cells, ionizing radiation 8Gy, 1 hour after test compound treatment; read-out: ATM inhibitory activity.
As for `Cc1ccc(C(Nc2ccc3c(c2)Sc2cccc(-c4cc(N5CCOCC5)cc(=O)[nH]4)c2S3)[C@H]2CN(C)CCO2)nc1` (single isomer, unassigned) [Example 1-56-13], the IC50 was less than 100 nM.
Same read-out and setting: the value for `O=c1cc(N2CCOCC2)cc(-c2cccc3c2Sc2ccc(NCc4ccno4)cc2C3)[nH]1` [Example 3-6, 6-(7-((isoxazol-5-ylmethyl)amino)-9H-thioxanthen-4-yl)-4-morpholinopyridin-2(1H)-one] was 500 to 2000 nM; that for `Cc1ccc(CNc2ccc3c(c2)Cc2cccc(-c4cc(N5CCOCC5)cc(=O)[nH]4)c2O3)s1` [Example 2-14-40, 6-(7-(((5-Methylthiophen-2-yl)methyl)amino)-9H-xanthen-4-yl)-4-morpholino pyridin-2(1H)-one] was 500 to 2000 nM; that for `COC[C@@H](Nc1ccc2c(c1)Sc1cccc(-c3cc(N4CCOCC4)cc(=O)[nH]3)c1S2)C(=O)O` [Example 1-49, (R)-3-methoxy-2-((6-(4-morpholino-6-oxo-1,6-dihydropyridin-2-yl)thianthren-2-yl)amino)propionic acid] was 500 to 2000 nM.
As for `Cc1ccc(C(Nc2ccc3c(c2)Sc2cccc(-c4cc(N5CCOCC5)cc(=O)[nH]4)c2S3)C2CCN(CC(F)F)CC2)nc1` (stereo not drawn) [Example 1-58, 6-(7-(((1-(2,2-difluoroethyl)piperidin-4-yl)(5-methylpyridin-2-yl)methyl)amino)thianthren-1-yl)-4-morpholinopyridin-2(1H)-one], the IC50 is less than 100 nM.
With `CN(C)c1ccc(CNc2ccc3c(c2)Cc2cccc(-c4cc(N5CCOCC5)cc(=O)[nH]4)c2O3)cn1` [Example 2-2-8, 6-(7-(((6-(Dimethylamino)pyridin-3-yl)methyl)amino)-9H-xanthen-4-yl)-4-morpholino pyridin-2(1H)-one], the IC50 was in the range of 100 to 500 nM.
Same read-out and setting: the same measure for `CC(Nc1ccc2c(c1)Sc1cccc(-c3cc(N4CCOCC4)cc(=O)[nH]3)c1S2)c1cccc(CN2CCCC2)n1` (stereo not drawn) [Example 1-12-110, 4-Morpholino-6-(7-((1-(6-(pyrrolidin-1-ylmethyl)pyridin-2-yl)ethyl)amino)thianthren-1-yl)pyridin-2 (1H)-one]: 500 to 2000 nM; for `COc1cccc(CNc2ccc3c(c2)Cc2ccnc(-c4cc(N5CCOCC5)cc(=O)[nH]4)c2O3)n1` [Example 2-42-7, 6-(7-(((6-Methoxypyridin-2-yl)methyl)amino)-5H-chromeno[2,3-c]pyridin-1-yl)-4-morpholinopyridin-2(1H)-one]: 500 to 2000 nM.
Regarding `Cc1ccnc(C(C)Nc2ccc3c(c2)Cc2cccc(-c4cc(N5CCOCC5)cc(=O)[nH]4)c2O3)c1` (single isomer, unassigned) [Example 2-14-93-2, 6-(7-((1-(4-methylpyridin-2-yl)ethyl)amino)-9H-xanthen-4-yl)-4-morpholinopyridin-2(1H)-one], the IC50 is less than 100 nM.
On the same count and under the same terms, the value for `O=c1cc(N2CCOCC2)cc(-c2cccc3c2Oc2ccc(NC4CCN(Cc5cncc(Cl)c5)CC4)cc2C3)[nH]1` [Example 2-28-17, 6-(7-((1-((5-Chloropyridin-3-yl)methyl)piperidin-4-yl)amino)-9H-xanthen-4-yl)-4-morpholino pyridin-2(1H)-one] was 100 to 500 nM; that for `CC(CN1CCOCC1C)Nc1ccc2c(c1)Sc1cccc(-c3cc(N4CCOCC4)cc(=O)[nH]3)c1S2` (stereo not drawn) [Example 1-13-10, 6-(7-((1-(3-Methylmorpholino)propan-2-yl)amino)thianthren-1-yl)-4-morpholino pyridin-2(1H)-one] was 100 to 500 nM; that for `CC[C@H](N)C(CC(C)C)Nc1ccc2c(c1)Sc1cccc(-c3cc(N4CCOCC4)cc(=O)[nH]3)c1S2` (stereo partly drawn) [Example 1-20-7] was 500 to 2000 nM.
Turning to `Cn1cc(-c2cncc(CNc3ccc4c(c3)Cc3cccc(-c5cc(N6CCOCC6)cc(=O)[nH]5)c3O4)c2)cn1` [Example 2-2-49, 6-(7-(((5-(1-Methyl-1H-pyrazol-4-yl)pyridin-3-yl)methyl)amino)-9H-xanthen-4-yl)-4-morpholino pyridin-2(1H)-one], the IC50 lay in the range of 100 to 500 nM.
Still for that read-out and setting: the same measure for `O=c1cc(N2CCOCC2)cc(-c2cccc3c2Sc2ccc(NC4CCCCC4Cl)cc2S3)[nH]1` (stereo not drawn) [Example 1-12-72, 6-(7-((2-Chlorocyclohexyl)amino)thianthren-1-yl)-4-morpholino pyridin-2(1H)-one]: 500 to 2000 nM.
The same measure, in the same setting: the value for `CC(Nc1ccc2c(c1)Sc1cccc(-c3cc(N4CCOCC4)cc(=O)[nH]3)c1S2)C(=O)N1CCCC1C` (stereo not drawn) [Example 1-18-6] was 100 to 500 nM; that for `O=C1CCCN1c1cncc(CNc2ccc3c(c2)Cc2cccc(-c4cc(N5CCOCC5)cc(=O)[nH]4)c2O3)c1` [Example 2-2-67, 4-Morpholino-6-(7-(((5-(2-oxopyrrolidin-1-yl)pyridin-3-yl)methyl)amino)-9H-xanthen-4-yl)pyridin-2(1H)-one] was 100 to 500 nM; that for `O=c1cc(N2CCOCC2)cc(-c2cccc3c2Oc2ccc(NC4CCN(CCCF)CC4)cc2C3)[nH]1` [Example 2-30-12, 6-(7-((1-(3-Fluoropropyl)piperidin-4-yl)amino)-9H-xanthen-4-yl)-4-morpholino pyridin-2(1H)-one] was 500 to 2000 nM.
Still for that read-out and setting: the value for `CC(CCN1CCCC1)Nc1ccc2c(c1)Sc1cccc(-c3cc(N4CCOCC4)cc(=O)[nH]3)c1S2` (stereo not drawn) [Example 1-42-4, 4-Morpholino-6-(7-((4-(pyrrolidin-1-yl)butan-2-yl)amino)thianthren-1-yl) pyridin-2(1H)-one] was 100 to 500 nM; that for `CC(CN1CCN(Cc2ccccn2)CC1)Nc1ccc2c(c1)Sc1cccc(-c3cc(N4CCOCC4)cc(=O)[nH]3)c1S2` (stereo not drawn) [Example 1-15-2, 4-Morpholino-6-(7-((1-(4-(pyridin-2-ylmethyl)piperazin-1-yl)propan-2-yl)amino)thianthren-1-yl)pyridin-2(1H)-one] was 100 to 500 nM.
Consider “3-((6-(4-Morpholino-6-oxo- 1,6-dihydropyridin-2-yl) thianthren-2-yl)amino) indolin-2-one [Example 1-12-37]”, for which the IC50 was 100 to 500 nM.
The same measure, in the same setting: the same measure for `CN(C)c1nccc(CNc2ccc3c(c2)Sc2cccc(-c4cc(N5CCOCC5)cc(=O)[nH]4)c2S3)n1` [Example 1-12-40, 6-(7-(((2-(Dimethylamino)pyrimidin-4-yl)methyl)amino)thianthren-1-yl)-4-morpholino pyridin-2(1H)-one]: 100 to 500 nM; for `Cc1ccc(C(CC2CC2)Nc2ccc3c(c2)Sc2cccc(-c4cc(N5CCOCC5)cc(=O)[nH]4)c2S3)nc1` (stereo not drawn) [Example 1-12-128, 6-(7-((2-Cyclopropyl-1-(5-methylpyridin-2-yl)ethyl)amino)thianthren-1-yl)-4-morpholino pyridin-2(1H)-one]: 100 to 500 nM.
`O=c1cc(N2CCOCC2)cc(-c2cccc3c2Oc2ccc(NCc4ccco4)cc2C3)[nH]1` [Example 2-14-33, 6-(7-((Furan-2-ylmethyl)amino)-9H-xanthen-4-yl)-4-morpholino pyridin-2(1H)-one]: the IC50 lay in the range of 100 to 500 nM.
Still for that read-out and setting: the value for `Cc1ccnc(C(C)Nc2ccc3c(c2)Cc2cccc(-c4cc(N5CCOCC5)cc(=O)[nH]4)c2O3)c1` (single isomer, unassigned) [Example 2-14-93-1, 6-(7-((1-(4-methylpyridin-2-yl)ethyl)amino)-9H-xanthen-4-yl)-4-morpholinopyridin-2(1H)-one] was 100 to 500 nM; that for `COCCN(C)CCNc1ccc2c(c1)Sc1cccc(-c3cc(N4CCOCC4)cc(=O)[nH]3)c1S2` [Example 1-10-12, 6-(7-((2-((2-Methoxyethyl) (methyl)amino)ethyl)amino)thianthren-1-y1)-4-morpholino pyridin-2(1H)-one] was 100 to 500 nM.
As for `O=c1cc(N2CCOCC2)cc(-c2cccc3c2Sc2ccc(NC4CCN(C5CCOCC5)C4)cc2S3)[nH]1` (stereo not drawn) [Example 1-24-13, 4-Morpholino-6-(7-((1-(tetrahydro-2H-pyran-4-yl)pyrrolidin-3-yl)amino)thianthren-1-yl)pyridin-2 (1H)-one], the IC50 lay within 100 to 500 nM.
Same read-out and setting: the value for `CCN(CC)C(=O)CN1CCN(c2cccc(CNc3ccc4c(c3)Sc3cccc(-c5cc(N6CCOCC6)cc(=O)[nH]5)c3S4)n2)CC1` [Example 1-12-34, N,N-Diethyl-2-(4-(6-(((6-(4-morpholino-6-oxo-1,6-dihydro-pyridin-2-yl)thianthren-2-yl)amino)methyl)pyridin-2-yl)piperazin-1-yl) acetamide] was 500 to 2000 nM; that for `CN(C)CC(CN1CCOCC1)Nc1ccc2c(c1)Sc1cccc(-c3cc(N4CCOCC4)cc(=O)[nH]3)c1S2` (stereo not drawn) [Example 9-3, 6-(7-((1-(Dimethylamino)-3-morpholinopropan-2-yl)amino)thianthren-1-yl)-4-morpholinopyridin-2(1H)-one] was 500 to 2000 nM.
For `COc1nccc(C(C)Nc2ccc3c(c2)Cc2cccc(-c4cc(N5CCOCC5)cc(=O)[nH]4)c2O3)n1` (stereo not drawn) [Example 2-14-63, 6-(7-((1-(2-Methoxypyrimidin-4-yl)ethyl)amino)-9H-xanthen-4-yl)-4-morpholino pyridin-2(1H)-one], the IC50 lay within 100 to 500 nM.
